According to patent US11299487B2, “Compounds and compositions as modulators of TLR signaling” (Neuropore Therapies, Inc., priority 2019, dated 2022):
Where two headings read alike, the source gives them in different places.

How the values were obtained:
Type in all cases: cell-based
human TLR9 = target: T1, human TLR9 (Homo sapiens, UniProt Q9NR96); assay: HEK-Blue hTLR9 assay (SEAP reporter) with agonist ODN 2006; conditions: HEK-Blue hTLR9 cells, ~3×EC50 ODN 2006, 18 h, exact values 8-point dilutions, approximate (~ or <) 4-point dilutions, read-out: ~IC50 (μM) with ODN2006
T1 construct: host or cells: HEK-Blue hTLR9 (HEK-293)
T1 sequence (Q9NR96 26-1032): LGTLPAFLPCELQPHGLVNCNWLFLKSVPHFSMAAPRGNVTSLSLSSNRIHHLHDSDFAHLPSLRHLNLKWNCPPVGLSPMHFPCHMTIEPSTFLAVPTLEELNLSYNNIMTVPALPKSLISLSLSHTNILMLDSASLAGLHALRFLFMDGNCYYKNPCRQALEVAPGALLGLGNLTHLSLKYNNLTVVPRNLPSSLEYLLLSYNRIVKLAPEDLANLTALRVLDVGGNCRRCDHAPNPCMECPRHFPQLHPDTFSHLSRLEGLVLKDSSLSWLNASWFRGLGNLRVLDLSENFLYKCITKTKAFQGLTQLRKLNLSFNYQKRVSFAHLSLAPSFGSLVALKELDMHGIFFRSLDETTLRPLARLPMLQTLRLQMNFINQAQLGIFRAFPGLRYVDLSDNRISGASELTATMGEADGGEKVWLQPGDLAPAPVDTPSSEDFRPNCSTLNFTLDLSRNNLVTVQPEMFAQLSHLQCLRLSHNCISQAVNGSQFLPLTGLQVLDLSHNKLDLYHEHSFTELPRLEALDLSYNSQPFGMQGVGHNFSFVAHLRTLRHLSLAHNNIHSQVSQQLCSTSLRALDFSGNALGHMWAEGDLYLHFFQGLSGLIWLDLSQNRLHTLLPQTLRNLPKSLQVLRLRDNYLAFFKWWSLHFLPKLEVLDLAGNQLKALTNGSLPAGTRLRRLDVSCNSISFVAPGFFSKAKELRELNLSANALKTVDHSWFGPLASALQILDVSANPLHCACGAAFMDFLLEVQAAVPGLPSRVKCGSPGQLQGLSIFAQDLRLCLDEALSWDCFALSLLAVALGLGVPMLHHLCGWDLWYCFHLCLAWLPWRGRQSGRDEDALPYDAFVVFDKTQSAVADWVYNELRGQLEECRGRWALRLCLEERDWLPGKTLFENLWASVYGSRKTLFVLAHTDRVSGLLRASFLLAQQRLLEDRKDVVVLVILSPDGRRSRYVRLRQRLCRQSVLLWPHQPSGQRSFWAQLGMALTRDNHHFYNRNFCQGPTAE
Protocol: Synthetic ODNs (ODN 2006 (ODN7909), class B CpG oligonucleotide, TLR9 agonist) was obtained from InvivoGen and was dissolved in endotoxin-free water to a concentration 500 μM, vortexed until complete solubilization, and stored in aliquots at −20° C. Prior to addition to cells, an aliquot of the dissolved ligand was vortexed shortly and then was diluted in medium to 50 μM. The EC50 of the agonist for each assay run was determined by using 3-fold dilutions from the starting concentration 10 μM.
Test compounds were solubilized fresh to 10-20 mM stocks in DMSO and sonicated for 5-10 minutes in a water bath sonicator. Serial dilutions were prepared in DMSO, and then diluted in medium. The final concentration of DMSO used in the assay was 1%.
HEK-Blue hTLR9 reporter cells (InvivoGen) are HEK-293 cells stably expressing both the human TLR9 gene and a secreted embryonic alkaline phosphatase (SEAP) reporter construct downstream of NFκB promotor sites. HEK-Blue hTLR9 cells were cultured according to manufacturer's protocol using Dulbecco's Modified Eagle Medium (DMEM; Gibco) containing 1× GlutaMax (Gibco), 10% heat-inactivated Fetal Bovine Serum (Gibco), Pen-Strep (50 U/mL penicillin, 50 μg/mL streptomycin, Gibco), 100 μg/mL Normocin (InvivoGen), and the selective antibiotics, 10 μg/mL Blasticidin (InvivoGen), and 100 μg/mL Zeocin (InvivoGen). Quanti-Blue reagent (InvivoGen) for detection and quantification of secreted alkaline phosphatase was dissolved in 100 mL of endotoxin-free water, warmed to 37° C. for 30 minutes and then filtered using a 0.2 μm membrane.
On day 1, 50 μL of each test compound dilution in duplicates or a vehicle control was added to each well of a 96-well plate followed by addition of 150 μL of HEK-Blue hTLR9 cell suspension (1×10^5 cells/well) and incubated at 37° C./5% CO2 for 2 h. Next, 50 μL of an approximate 3×EC50 concentration of TLR9 agonist, ODN 2006, was added to the wells containing test compounds or the vehicle control. The plates were then incubated at 37° C./5% CO2 for 18 h. For each assay run, vehicle-treated HEK-Blue hTLR9 cells were treated with serial dilutions of agonist to determine EC50 values for the respective run.
On day 2, secreted alkaline phosphatase (SEAP) activity was detected in cell culture supernatants. In brief, 30 μL was collected from each well and transferred to a 96-well plate. Next, 200 μL of Quanti-Blue detection reagent was added to each well. Plates were incubated at 37° C. for 60 min. and SEAP activity was assessed by spectrophotometer OD reading at 655 nm. Table A and Table B show the activities of the compounds tested in HEK-Blue hTLR9 cells against ODN 2006. The activities of the compounds against ODN 2006 are presented as IC50 values which were defined as concentrations of the compounds where percent inhibition of the signal induced by agonist is equal to 50. Exact IC50 values were calculated based on 8-point dilutions for each compound. Approximate IC50 values (˜ or <) were calculated based on 4-point dilutions for each compound.

human TLR2 [1] = target: T2, human TLR2 (Homo sapiens, UniProt O60603); assay: HEK-Blue hTLR2 antagonism assay (SEAP reporter) with agonist Pam2CSK4 (TLR2/6 agonist); conditions: HEK-Blue hTLR2 cells, ~3×EC50 Pam2CSK4, 18 h, SEAP OD 655 nm, 8-point dilutions
T2 construct: host or cells: HEK-Blue hTLR2 (HEK-293)
T2 sequence (O60603 21-784): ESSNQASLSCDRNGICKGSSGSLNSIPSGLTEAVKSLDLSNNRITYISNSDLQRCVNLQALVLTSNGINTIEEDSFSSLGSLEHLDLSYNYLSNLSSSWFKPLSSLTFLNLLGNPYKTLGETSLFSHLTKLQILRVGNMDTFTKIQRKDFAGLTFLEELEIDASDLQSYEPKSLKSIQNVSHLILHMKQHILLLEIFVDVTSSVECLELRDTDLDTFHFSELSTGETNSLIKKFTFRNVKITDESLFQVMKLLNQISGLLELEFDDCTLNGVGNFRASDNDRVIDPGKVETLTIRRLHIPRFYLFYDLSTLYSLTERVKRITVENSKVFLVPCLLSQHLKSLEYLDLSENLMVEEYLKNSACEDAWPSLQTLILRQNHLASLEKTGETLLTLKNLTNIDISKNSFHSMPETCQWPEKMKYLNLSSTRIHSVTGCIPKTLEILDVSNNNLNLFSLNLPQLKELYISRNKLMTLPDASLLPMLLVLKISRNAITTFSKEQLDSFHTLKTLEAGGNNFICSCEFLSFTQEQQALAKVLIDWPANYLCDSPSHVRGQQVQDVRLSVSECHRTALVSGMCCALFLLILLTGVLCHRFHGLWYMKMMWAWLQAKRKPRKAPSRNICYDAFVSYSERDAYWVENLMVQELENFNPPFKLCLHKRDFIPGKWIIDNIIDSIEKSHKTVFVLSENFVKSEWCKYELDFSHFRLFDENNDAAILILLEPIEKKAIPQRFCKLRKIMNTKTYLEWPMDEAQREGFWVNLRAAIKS

human TLR2 [2] = target: T2, human TLR2; assay: HEK-Blue hTLR2 antagonism assay (SEAP reporter) with agonist Pam3CSK4 (TLR1/2 agonist); conditions: HEK-Blue hTLR2 cells, ~3×EC50 Pam3CSK4, 18 h, SEAP OD 655 nm, 8-point dilutions

Structure (SMILES) | IC50 (human TLR9; Table B) [µM] | IC50 (human TLR2 [1]; Table B) [µM] | IC50 (human TLR2 [2]; Table B) [µM] | IC50 (human TLR9; Table A) [µM] | IC50 (human TLR2 [1]; Table A) [µM] | IC50 (human TLR2 [2]; Table A) [µM]
O=Cc1c(O)cc(C#Cc2ccc(N3CCCC3)cc2)cc1F [Compound B4, 2-fluoro-6-hydroxy-4-((4-(pyrrolidin-1-yl)phenyl)ethynyl)benzaldehyde] | ~1.5 | 6.3 | 2.7 |  |  | 
CN1CCN(/N=C/c2cc(-c3ccn(-c4ccccc4)n3)cc(F)c2O)CC1 [Compound A33, (E)-2-fluoro-6-(((4-methylpiperazin-1-yl)imino)methyl)-4-(1-phenyl-1H-pyrazol-3-yl)phenol] |  |  |  | ~4 | 4 | 3.6
O=Cc1cc(-c2cnc(-c3ccccc3)o2)cc(F)c1O [Compound A88, 3-fluoro-2-hydroxy-5-(2-phenyloxazol-5-yl)benzaldehyde] |  |  |  | ~3 | 2.1 | 1.3
COc1cc(-c2cnn(CCN3CCOCC3)c2)cc(C=O)c1O [Compound A2, 2-hydroxy-3-methoxy-5-(1-(2-morpholinoethyl)-1H-pyrazol-4-yl)benzaldehyde] |  |  |  | > 33 | > 100 | > 100
O=Cc1cc(C(=O)Nc2ccc(N3CC4CC4C3)cc2)cc(F)c1O (stereo not drawn) [Compound B74, N-(4-(3-azabicyclo[3.1.0]hexan-3-yl)phenyl)-3-fluoro-5-formyl-4-hydroxybenzamide] | < 1.2 | 1.6 | 0.8 |  |  | 
O=Cc1cc(C(=O)Nc2ccc(C(F)(F)F)c(Cl)c2)cc(F)c1O [Compound B14, N-(3-Chloro-4-(trifluoromethyl)phenyl)-3-fluoro-5-formyl-4-hydroxybenzamide] | > 33 | 1.3 | 1.5 |  |  | 
COc1cc(C#Cc2ccc(N3CCCC3)cc2)cc(O)c1C=O [Compound B7, 2-hydroxy-6-methoxy-4-((4-(pyrrolidin-1-yl)phenyl)ethynyl)benzaldehyde] | > 33 | 35.7 | 20.8 |  |  | 
COc1cc(-c2cnn(-c3ccccc3)c2)cc(O)c1F [Compound A16, 2-fluoro-3-methoxy-5-(1-phenyl-1H-pyrazol-4-yl)phenol] |  |  |  | > 33 | > 100 | > 100
O=Cc1cc(-n2cc(-c3ccc(N4CCCC4)cc3)nn2)cc(F)c1O [Compound A42, 3-fluoro-2-hydroxy-5-(4-(4-(pyrrolidin-1-yl)phenyl)-1H-1,2,3-triazol-1-yl)benzaldehyde] |  |  |  | 0.1 | 0.4 | 0.3
O=Cc1cc(-c2nsc(-c3ccc(N4CCCC4)cc3)n2)cc(F)c1O [Compound A61, 3-fluoro-2-hydroxy-5-(5-(4-(pyrrolidin-1-yl)phenyl)-1,2,4-thiadiazol-3-yl)benzaldehyde] |  |  |  | < 1.2 | 3.2 | 1
O=Cc1cc(C(=O)Nc2ccc(N3CCC(F)(F)C3)cc2)cc(F)c1O [Compound B67, N-(4-(3,3-difluoropyrrolidin-1-yl)phenyl)-3-fluoro-5-formyl-4-hydroxybenzamide] | < 1.2 | 3.3 | 1.2 |  |  | 
O=Cc1cc(-c2csc(-c3ccc(N4CCCC4)cc3)c2)cc(F)c1O [Compound A52, 3-fluoro-2-hydroxy-5-(5-(4-(pyrrolidin-1-yl)phenyl)thiophen-3-yl)benzaldehyde] |  |  |  | < 1.2 | 0.7 | 0.2
CC1(C)CCN(c2ccc(NC(=O)c3cc(F)c(O)c(C=O)c3)cc2)C1 [Compound B73, N-(4-(3,3-dimethylpyrrolidin-1-yl)phenyl)-3-fluoro-5-formyl-4-hydroxybenzamide] | 0.3 | 0.6 | 0.3 |  |  | 
COc1cc(-c2ccn(-c3ccccc3)n2)cc(C=O)c1O [Compound A25, 2-hydroxy-3-methoxy-5-(1-phenyl-1H-pyrazol-3-yl)benzaldehyde] |  |  |  | ~3 | 1.9 | 1.2
O=Cc1cc(C(=O)Nc2ccc(N3C[C@H]4COC[C@H]4C3)cc2)cc(F)c1O [Compound B75, 3-fluoro-5-formyl-4-hydroxy-N-(4-((3aR,6aS)-tetrahydro-1H-furo[3,4-c]pyrrol-5(3H)-yl)phenyl)benzamide] | ~4.7 | 13 | 6 |  |  | 
O=Cc1cc(C(=O)Nc2ccc(N3CCCC3)cc2)cc(F)c1O [Compound B12, 3-fluoro-5-formyl-4-hydroxy-N-(4-(pyrrolidin-1-yl)phenyl)benzamide] | 0.7 | 2.7 | 2 |  |  | 
COCCCn1cc(-c2cc(C=O)c(O)c(OC)c2)cn1 [Compound A7, 2-hydroxy-3-methoxy-5-(1-(3-methoxypropyl)-1H-pyrazol-4-yl)benzaldehyde] |  |  |  | > 33 | 36.8 | 42.3
O=Cc1cc(-c2ccn(-c3ccc(N4CCCC4)cc3)n2)cc(F)c1O [Compound A27, 3-fluoro-2-hydroxy-5-(1-(4-(pyrrolidin-1-yl)phenyl)-1H-pyrazol-3-yl)benzaldehyde] |  |  |  | < 1.2 | 0.9 | 0.8
O=Cc1cc(-c2cnn(-c3cccc(N4CCCC4)c3)c2)cc(F)c1O [Compound A22, 3-fluoro-2-hydroxy-5-(1-(3-(pyrrolidin-1-yl)phenyl)-1H-pyrazol-4-yl)benzaldehyde] |  |  |  | > 10 | 0.9 | 0.9
CC1(C)CN(c2ccc(NC(=O)c3cc(F)c(O)c(C=O)c3)cn2)c2ccccc21 [Compound B87, N-(6-(3,3-dimethylindolin-1-yl)pyridin-3-yl)-3-fluoro-5-formyl-4-hydroxybenzamide] | 0.1 | 0.5 | 0.4 |  |  | 
